pIC50: −log10 of the molar value.
target: CCR2 (Homo sapiens (Human), UniProt P41597); assay: MCP-1 Receptor Binding Assay in THP-1 Cells; conditions: 0.5 nM 125I labeled MCP-1, 2 hours at 30° C., read-out: Inhibition of MCP-1 Binding IC50 MCP1B;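 further: THP-1 is a human monocytic cell line, and nonspecific binding was defined with 1 µM unlabeled MCP-1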
Sequence (P41597 whole entry): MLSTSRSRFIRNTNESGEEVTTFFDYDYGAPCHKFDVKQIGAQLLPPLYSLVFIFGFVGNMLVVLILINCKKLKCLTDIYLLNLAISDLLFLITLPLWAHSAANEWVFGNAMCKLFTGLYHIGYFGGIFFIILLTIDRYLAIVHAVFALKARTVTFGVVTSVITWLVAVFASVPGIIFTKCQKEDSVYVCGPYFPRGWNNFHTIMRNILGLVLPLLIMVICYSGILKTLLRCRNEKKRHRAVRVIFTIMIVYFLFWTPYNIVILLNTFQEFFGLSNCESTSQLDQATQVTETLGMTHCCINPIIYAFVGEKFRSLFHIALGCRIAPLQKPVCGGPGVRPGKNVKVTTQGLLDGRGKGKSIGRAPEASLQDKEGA

Structure (SMILES)	pIC50
O=C(CNc1ncnc2ccc(C(F)(F)F)cc12)NC1CN([C@H]2CC[C@@H](N3CCCCC3=O)CC2)C1 [Example 56, N-(1-((1s,4s)-4-(2-oxopiperidin-1-yl)cyclohexyl)azetidin-3-yl)-2-((6-(trifluoromethyl)quinazolin-4-yl)amino)acetamide]	6.26
O=C(CNc1cnnc2ccc(C(F)(F)F)cc12)NC1CN([C@H]2CC[C@@](O)(c3cncs3)CC2)C1 [Example 147, N-(1-((1r,4r)-4-hydroxy-4-(thiazol-5-yl)cyclohexyl)azetidin-3-yl)-2-((6-(trifluoromethyl)cinnolin-4-yl)amino)acetamide]	8.04
O=C(CNc1ncnc2ccc(C(F)(F)F)cc12)NC1CN([C@H]2CC[C@@H](N3CCCO3)CC2)C1 [Example 53, N-(1-((1s,4s)-4-(isoxazolidin-2-yl)cyclohexyl)azetidin-3-yl)-2-((6-(trifluoromethyl)quinazolin-4-yl)amino)acetamide]	6.46
CC(=O)NC[C@H]1CC[C@@H](N2CC(NC(=O)CNc3ncnc4ccc(C(F)(F)F)cc34)C2)CC1 [Example 111, N-(1-((1s,4s)-4-(acetamidomethyl)cyclohexyl)azetidin-3-yl)-2-((6-(trifluoromethyl)quinazolin-4-yl)amino)acetamide]	7.43
CCC(O)[C@H]1CC[C@@H](N2CC(NC(=O)CNc3cnnc4ccc(C(F)(F)F)cc34)C2)CC1 (some centres unmarked) [Example 152, N-(1-(4-(1-hydroxypropyl)cyclohexyl)azetidin-3-yl)-2-(6-(trifluoromethyl)cinnolin-4-ylamino)acetamide]	6.28
CC(C)[C@H]1CC[C@@H](N2CC(NC(=O)CNc3ncnc4ccc(C(F)(F)F)cc34)C2)CC1 [Example 117, N-(1-((1s,4s)-4-isopropylcyclohexyl)azetidin-3-yl)-2-((6-(trifluoromethyl)quinazolin-4-yl)amino)acetamide]	7.00
CCNC(=O)C1CCC(N2CC(NC(=O)CNc3ncnc4ccc(C(F)(F)F)cc34)C2)CC1 (centres unmarked) [Example 127, N-ethyl-4-(3-(2-((6-(trifluoromethyl)quinazolin-4-yl)amino)acetamido)azetidin-1-yl)cyclohexanecarboxamide]	6.70
CN1C(=O)CCC1[C@H]1CC[C@@H](N2CC(NC(=O)CNc3ncnc4ccc(C(F)(F)F)cc34)C2)CC1 (stereo partly drawn) [Example 39, N-(1-((1S,4s)-4-(1-methyl-5-oxopyrrolidin-2-yl)cyclohexyl)azetidin-3-yl)-2-((6-(trifluoromethyl)quinazolin-4-yl)amino)acetamide]	6.64
O=C(CNc1ncnc2ccc(C(F)(F)F)cc12)NC1CN([C@H]2CC[C@@H](C(O)C3CCCC3)CC2)C1 (stereo partly drawn) [Example 94, N-(1-((1S,4s)-4-(cyclopentyl(hydroxy)methyl)cyclohexyl)azetidin-3-yl)-2-((6-(trifluoromethyl)quinazolin-4-yl)amino)acetamide]	7.62
CN(C)CC(O)[C@H]1CC[C@@H](N2CC(NC(=O)CNc3ncnc4ccc(C(F)(F)F)cc34)C2)CC1 (stereo partly drawn) [Example 23, N-(1-((1S,4s)-4-(2-(dimethylamino)-1-hydroxyethyl)cyclohexyl)azetidin-3-yl)-2-((6-(trifluoromethyl)quinazolin-4-yl)amino)acetamide]	6.15
CN(C)C(=O)[C@H]1CC[C@@H](N2CC(NC(=O)CNc3ncnc4ccc(C(F)(F)F)cc34)C2)CC1 [Example 128, (1s,4s)-N,N-dimethyl-4-(3-(2-((6-(trifluoromethyl)quinazolin-4-yl)amino)acetamido)azetidin-1-yl)cyclohexanecarboxamide]	6.44
CC[C@H](O)[C@H]1CC[C@H](N2CC(NC(=O)CNc3nccc4ncc(C(F)(F)F)cc34)C2)CC1 [Example 151]	< 4.60
CC[C@@H](O)[C@H]1CC[C@@H](N2CC(NC(=O)CNc3nncc4ccc(C(F)(F)F)cc34)C2)CC1 (stereo in doubt) [Example 153, N-(1-((1R,4s)-4-((S)-1-hydroxypropyl)cyclohexyl)azetidin-3-yl)-2-((7-(trifluoromethyl)phthalazin-1-yl)amino)acetamide]	7.82
O=C(CNc1ncnc2ccc(C(F)(F)F)cc12)NC1CN([C@H]2CC[C@@H](C3CCCCC3)CC2)C1 [Example 102, N-(1-((1s,4s)-1^˜1,1′-bi(cyclohexan)1-4-yl)azetidin-3-yl)-2-((6-(trifluoromethyl)quinazolin-4-yl)amino)acetamide]	6.06
O=C(CNc1ncnc2ccc(C(F)(F)F)cc12)NC1CN([C@H]2CC[C@@H](C3CCCCO3)CC2)C1 (stereo partly drawn) [Example 14, N-(1-((1S,4s)-4-(tetrahydro-2H-pyran-2-yl)cyclohexyl)azetidin-3-yl)-2-((6-(trifluoromethyl)quinazolin-4-yl)amino)acetamide]	7.82
CC(C)[C@@H](O)[C@H]1CC[C@H](N2CC(NC(=O)CNc3nccc4ncc(C(F)(F)F)cc34)C2)CC1 [Example 156, N-(1-((1R,4r)-4-((R)-1-hydroxy-2-methylpropyl)cyclohexyl)azetidin-3-yl)-2-((3-(trifluoromethyl)-1,6-naphthyridin-5-yl)amino)acetamide]	6.37
O=C(CNc1ncnc2ccc(C(F)(F)F)cc12)NC1CN([C@H]2CC[C@@H](C3C=CCO3)CC2)C1 (stereo partly drawn) [Example 10, N-(1-((1R,4s)-4-(2,5-dihydrofuran-2-yl)cyclohexyl)azetidin-3-yl)-2-((6-(trifluoromethyl)quinazolin-4-yl)amino)acetamide and N-(1-((1R,4r)-4-(2,5-dihydrofuran-2-yl)cyclohexyl)azetidin-3-yl)-2-((6-(trifluoromethyl)quinazolin-4-yl)amino)acetamide]	8.05
CC(C)c1nc(NCC(=O)NC2CN([C@H]3CC[C@@](O)(c4cncs4)CC3)C2)c2cc(C(F)(F)F)ccc2n1 [Example 88]	8.15
O=C(CNc1ncnc2ccc(C(F)(F)F)cc12)NC1CN([C@H]2CC[C@@H](C3CCOC(=O)N3)CC2)C1 (stereo partly drawn) [Example 17, N-(1-((1R,4s)-4-(2-oxo-1,3-oxazinan-4-yl)cyclohexyl)azetidin-3-yl)-2-((6-(trifluoromethyl)quinazolin-4-yl)amino)acetamide]	7.24
CC(C)(C)C(O)[C@H]1CC[C@@H](N2CC(NC(=O)CNc3ncnc4ccc(C(F)(F)F)cc34)C2)CC1 (stereo partly drawn) [Example 98, N-(1-((1R,4s)-4-(1-hydroxy-2,2-dimethylpropyl)cyclohexyl)azetidin-3-yl)-2-((6-(trifluoromethyl)quinazolin-4-yl)amino)acetamide]	6.12
CC(=O)N[C@H]1CC[C@@H](N2CC(NC(=O)CNc3ncnc4ccc(C(F)(F)F)cc34)C2)CC1 [Example 41, N-(1-((1s,4s)-4-acetamidocyclohexyl)azetidin-3-yl)-2-((6-(trifluoromethyl)quinazolin-4-yl)amino)acetamide]	6.17
CCOCC1CCC(N2CC(NC(=O)CNc3ncnc4ccc(C(F)(F)F)cc34)C2)CC1 (centres unmarked) [Example 105, N-(1-(4-(ethoxymethyl)cyclohexyl)azetidin-3-yl)-2-((6-(trifluoromethyl)quinazolin-4-yl)amino)acetamide]	7.85
O=C(CNc1ncnc2ccc(C(F)(F)F)cc12)NC1CN([C@H]2CC[C@@H](C(=O)N3CCCC3)CC2)C1 [Example 130, N-(1-((1s,4s)-4-(pyrrolidine-1-carbonyl)cyclohexyl)azetidin-3-yl)-2-((6-(trifluoromethyl)quinazolin-4-yl)amino)acetamide]	6.00

From US9062048B2, “Cyclohexyl-azetidinyl antagonists of CCR2” (Janssen Pharmaceutica NV, priority 2010, dated 2015)
